Data set [1] can be described thus: Cytotoxicity (CC50) of tested peptides. The settings on record: African green monkey, Vero E6 cells.
The next data set has as its system HCoV-229E. The settings on record: 24 h.
The target in data set [2] is HCoV-229E spike (S) protein (human coronavirus 229E, UniProt P15423). In words: cell-based or functional assay.

Ends that are not written are not given here.

For “HRLRQIRGIRARVVQIQKEIWRLNEVAKLLNESLIYLQE [Peptide 125]”, the midpoint of cytotoxicity in data set [1], the CC50, lay at 255 µM. Further, in the data set on HCoV-229E, it took 14.5 µM to reach half-maximal inhibition (IC50) and the “Selectivity Index” value turned out to be 17.56.
Consider `CC[C@H](C)[C@H](NC(=O)CNC(=O)[C@H](CO)NC(=O)[C@@H](NC(=O)[C@H](CC(=O)O)NC(=O)CNC(=O)[C@H](CC(C)C)NC(=O)[C@@H](NC(=O)[C@@H](N)Cc1c[nH]cn1)C(C)C)[C@@H](C)CC)C(=O)N[C@@H](CC(N)=O)C(=O)N[C@@H](C)C(=O)N[C@@H](CO)C(=O)N[C@H](C(=O)N[C@H](C(=O)N[C@@H](CCC(N)=O)C(=O)N[C@H](C(=O)N[C@@H](CCC(N)=O)C(=O)N[C@@H](CCCCN)C(=O)N[C@@H](CCC(=O)O)C(=O)N[C@H](C(=O)N[C@@H](CC(=O)O)C(=O)N[C@@H](CCCNC(=N)N)C(=O)N[C@@H](CC(C)C)C(=O)N[C@@H](CC(N)=O)C(=O)N[C@@H](CCC(=O)O)C(=O)N[C@H](C(=O)N[C@@H](C)C(=O)N[C@@H](CCCCN)C(=O)N[C@@H](CC(N)=O)C(=O)N[C@@H](CC(C)C)C(=O)N[C@@H](Cc1c[nH]cn1)C(=O)N[C@@H](CCC(=O)O)C(=O)N[C@@H](CO)C(=O)N[C@@H](CC(C)C)C(=O)N[C@H](C(=O)N[C@@H](Cc1ccc(O)cc1)C(=O)N[C@@H](CC(C)C)C(=O)N[C@@H](CCC(N)=O)C(=O)N[C@@H](CCC(=O)O)C(=O)O)[C@@H](C)CC)C(C)C)[C@@H](C)CC)[C@@H](C)CC)C(C)C)C(C)C` [Peptide 121], for which, in data set [1], half-maximal cytotoxicity (CC50) was put at 251 µM. Further, in the data set with HCoV-229E, the IC50 (as a rule, the concentration that gives 50% inhibition) was determined as 14.2 µM and the “Selectivity Index” value came out at 13.06.

B1: Peptide 121 (peptide)
peptide: HVLGDISGINASVVQIQKEIDRLNEVAKNLHESLIYLQE
For the molecule B1, the “IC50, plaque reduction test against HCoV-229E” value in data set [2] was 14.2 µM.

B2: Peptide 125 (peptide)
peptide: HRLRQIRGIRARVVQIQKEIWRLNEVAKLLNESLIYLQE
As for B2, the “IC50, plaque reduction test against HCoV-229E” value in data set [2] was 14.5 µM.

The values are drawn from patent US11939354B1, “Fusion peptide inhibitors of human coronavirus 229E” (KING FAISAL UNIVERSITY, priority 2023, dated 2024).
